Values after ≈ are worked out from the molar mass of the structure shown.
Assays:
[1] = Maximum solubility in plasmin assay; type: physicochemical; details: Tris HCl buffer (plasmin activity assay solution), pH 7.5
[2] = Pharmacokinetic study in Wistar rats; type: in vivo; details: for Mortality: PK2 2.5 mg/kg iv, 9 rats; for AUC / Cmax / Tmax / Vd / clearance / half-life: iv
Method: A pharmacokinetic study was performed for compound 5 in Wistar rats and Beagle dogs. For rats, a total of 35 male and 35 female rats were used for the study. At initiation of the dosing, rats were 9 to 10 weeks old and the body weight variation among rats was within ±20% of the mean body weight for each sex. […] Food and filtered water were provided ad libitum. During randomization, 30 male and 30 female rats were selected for the study and randomly allocated to the 4 different groups. The remaining 5 male and 5 female rats were returned to the animal facility. Rats were observed twice daily for morbidity, mortality, and clinical signs during the whole study period. Rats were euthanized after last blood collection time point by carbon dioxide asphyxiation. Sterile water served as a vehicle to dissolve compound 5 and the resulting formulations were administered right after preparation. Dose formulations were administered to rats via an intravenous bolus injection through the tail vein, using a sterile needle attached to a graduated syringe. A fixed volume of 5 mL/kg body weight was administered. Individual doses were adjusted based on the most recent recorded body weight of each rat. Four dose levels were selected: vehicle control (PK1), 2.5 mg/kg (PK2), 5 mg/kg (PK3), and 10 mg/kg (PK4).
Pharmacokinetic assessment of compound 5 was conducted on the day of dosing at multiple time points: 0 h (pre-dose), 5 min, 15 min, 0.5 h, 1 h, 2 h, 4 h, 6 h, 10 h, and 24 h post-dosing for PK2, PK3, and PK4 rats. At each time point, samples were only obtained from a subset of 3 rats. For the PK1 group, samples were collected at 0 h and at 24 h post-dosing. Blood samples (400 µL) were collected into heparin sodium tubes from the retro-orbital plexus under very light isoflurane anesthesia. Samples were inverted 4 to 5 times and placed on ice and then centrifuged at 3500 rpm for 15 min at 8 °C for plasma extraction. Plasma was transferred to Eppendorf tubes and stored at −70 ± 10 °C until assayed. The concentration of compound 5 was analyzed in plasma using High-Performance Liquid Chromatography. […] The mobile phase consisted of acetonitrile (A) and 2 mM ammonium Formate in Mili-Q water (B) with an isocratic elution mode. Pharmacokinetic analysis of the concentration of compound 5 in plasma was performed using the non-compartmental model of the WinNonlin® software version 8.1 at JRF. The group mean values of plasma concentration were analyzed to obtain different pharmacokinetics parameters, including Cmax (maximum peak concentration), Tmax (time of maximum peak concentration), AUC (area under the concentration–time curve, Cl (clearance), Vd (volume of distribution), Kel (elimination rate constant), and T1/2 (terminal half-life).

plasmin = biological target: T1, plasmin (Homo sapiens, UniProt P00747); assay: Plasmin activity assay (Plasmin Inhibitor Screening Assay Kit); type: biochemical
T1 construct: purchased abcam
T1 sequence (P00747 97-580 limits assumed): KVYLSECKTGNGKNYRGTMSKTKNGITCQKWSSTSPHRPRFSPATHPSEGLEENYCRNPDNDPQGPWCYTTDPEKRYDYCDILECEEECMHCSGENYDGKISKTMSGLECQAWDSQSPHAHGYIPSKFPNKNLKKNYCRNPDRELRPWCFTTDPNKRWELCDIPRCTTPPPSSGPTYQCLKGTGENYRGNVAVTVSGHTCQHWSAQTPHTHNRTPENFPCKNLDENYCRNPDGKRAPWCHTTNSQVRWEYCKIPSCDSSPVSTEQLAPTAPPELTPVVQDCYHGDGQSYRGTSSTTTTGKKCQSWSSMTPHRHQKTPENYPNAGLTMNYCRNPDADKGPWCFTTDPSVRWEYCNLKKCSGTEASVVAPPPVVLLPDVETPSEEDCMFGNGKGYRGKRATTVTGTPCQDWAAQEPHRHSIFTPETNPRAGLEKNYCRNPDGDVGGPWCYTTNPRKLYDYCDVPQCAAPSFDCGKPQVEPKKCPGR
T1 sequence (P00747 581-810 limits assumed): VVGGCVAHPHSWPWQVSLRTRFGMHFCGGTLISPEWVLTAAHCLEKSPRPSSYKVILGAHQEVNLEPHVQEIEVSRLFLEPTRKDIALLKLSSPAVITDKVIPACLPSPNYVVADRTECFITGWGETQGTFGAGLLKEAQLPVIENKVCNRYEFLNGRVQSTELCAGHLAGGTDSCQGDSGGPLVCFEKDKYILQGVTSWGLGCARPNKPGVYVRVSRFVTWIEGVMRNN
Method: The potential activity of the studied compounds on the catalytic domain of plasmin was evaluated using the Plasmin Inhibitor Screening Assay Kit (abcam), following the manufacturer’s instructions. Briefly, the assay measures the inhibition of plasmin’s activity by the tested compounds through the cleavage of a fluorogenic peptide substrate. The assay was performed in flat-bottom 96-well plates. Plasmin was pre-incubated with different concentrations of the tested compounds for 10 min at RT prior to the addition of the peptide substrate. Plasmin’s activity was then measured by monitoring the increase in fluorescence intensity over time using a microplate reader (Infinite M Plex, Tecan, Männedorf, Switzerland) at an Ex/Em of 360/450 nm, every minute at 37 °C for 10 min. The slope of each sample was determined using the initial and final fluorescence values and their respective time points. (1) Fluorescence slope=RFU2−RFU1/t2−t1
The Relative Plasmin Inhibition was calculated according to the manufacturer’s instructions using a control slope with no compound (enzyme control):(2) Relative Plasmin Inhibition%=SlopeControl−SlopeCompound/SlopeControl×100

in vivo = details: dog, iv, 5 mg/kg; for Morbidity / Mortality: 24 h
Method: For the pharmacokinetic study in Beagle dogs, a total of 3 male and 3 female dogs were selected. They were acclimatized for 5 days before dosing and at the start of dosing, dogs were between 36 and 37 months old. […] Sterile water was also selected as a vehicle for injection of compound 5. […] A constant dose volume of 1 mL/kg body weight was administered, adjusted according to the most recently recorded body weight of each dog. A single dose of 5 mg/kg b. wt. was selected in the case of dogs.
Blood collection, plasma separation, and storage procedures were conducted following the same procedure as described for rats. Blood samples (600 µL) were collected from the cephalic vein of the forelimb for each dog. However, the concentration of compound 5 was determined using LC-MS/MS analysis. A column with identical characteristics to the one used in rats was employed, with a flow rate of 0.65 mL/min, a binary elution mode, and a run time of 6.0 min. Plasma samples were analyzed to determine the concentration of the active ingredient, and subsequently, the pharmacokinetic parameters were calculated. After a washout period of 7 days, dogs were returned back to stock.

[3] = female, Wistar, rat, in vivo, 2.5 mg/kg
[4] = female, Wistar, rat, in vivo, 5 mg/kg
[5] = female, Wistar, rat, in vivo, 10 mg/kg
[6] = male, Wistar, rat, in vivo, 2.5 mg/kg
[7] = male, Wistar, rat, in vivo, 5 mg/kg
[8] = male, Wistar, rat, in vivo, 10 mg/kg

O=c1[nH]nc(-c2cn(C3CCNCC3)nn2)o1 [compound 5]
solubility [1]: 20 mM (≈ 4720 µg/mL) | Mortality ([2]; female): 0 number of rats | Mortality ([2]; male): 0 number of rats | elimination halftime ([2]; both, Wistar (rat), Beagle (dog), rat, in vivo): 2 to 3 h | AUC [2, 3]: 3630 ng·h/mL | Cmax [2, 3]: 8660 ng/mL | Tmax [2, 3]: 4.8 min | Vd [2, 3]: 1.91 L/kg | clearance [2, 3]: 11.5 mL/min/kg | half-life [2, 3]: 115 min | AUC [2, 4]: 7040 ng·h/mL | Tmax [2, 4]: 4.8 min | Vd [2, 4]: 2.03 L/kg | clearance [2, 4]: 11.8 mL/min/kg | half-life [2, 4]: 119 min | AUC [2, 5]: 13600 ng·h/mL | Tmax [2, 5]: 4.8 min | Vd [2, 5]: 2.37 L/kg | clearance [2, 5]: 12.2 mL/min/kg | half-life [2, 5]: 134 min | AUC [2, 6]: 3430 ng·h/mL | Cmax [2, 6]: 8280 ng/mL | Tmax [2, 6]: 4.8 min | Vd [2, 6]: 2.52 L/kg | clearance [2, 6]: 12.2 mL/min/kg | half-life [2, 6]: 145 min | AUC [2, 7]: 6530 ng·h/mL | Cmax [2, 7]: 15100 ng/mL | Tmax [2, 7]: 4.8 min | Vd [2, 7]: 6.01 L/kg | clearance [2, 7]: 12.7 mL/min/kg | half-life [2, 7]: 327 min | AUC [2, 8]: 12200 ng·h/mL | Cmax [2, 8]: 26300 ng/mL | Tmax [2, 8]: 4.8 min | Vd [2, 8]: 6.65 L/kg | clearance [2, 8]: 13.7 mL/min/kg | half-life [2, 8]: 337 min | Cmax ([2]; rat, in vivo, 5 mg/kg): 16,634 | Cmax ([2]; rat, in vivo, 10 mg/kg): 30,839 | inhibition at 5000 µM (plasmin; 5 mM, read-out: percentage of plasmin's inhibition): 6.29% | inhibition at 10000 µM (plasmin; 10 mM, read-out: percentage of plasmin's inhibition): 23.9% | inhibition at 15000 µM (plasmin; 15 mM, read-out: percentage of plasmin's inhibition): 31.3% | inhibition at 20000 µM (plasmin; 20 mM, read-out: percentage of plasmin's inhibition): 65.3% | IC50 (plasmin; inhibition of plasmin's cleavage of a synthetic substrate by 50%): 17.9 ± 1.24 mM | increase of IC50 of plasmin's catalytic domain compared to IC50 in plasma clot lysis assay (plasmin; plasma clot lysis IC50 from Bosch-Sanz et al. [43]): 1000 fold | Clinical signs observed: N of dogs with Mild vomiting (in vivo; female, Beagle): 1 | Cmax (in vivo; female, Beagle): 15800 ng/mL | Kel (in vivo; female, Beagle): 0.23 h‐1 | Tmax (in vivo; female, Beagle): 4.8 min | half-life (in vivo; female, Beagle): 182 min | Morbidity (in vivo; female, Beagle): 0 number of dogs | Mortality (in vivo; female, Beagle): 0 number of dogs | Clinical signs observed: N of dogs with Mild vomiting (in vivo; male, Beagle): 1 | Cmax (in vivo; male, Beagle): 14000 ng/mL | Kel (in vivo; male, Beagle): 0.24 h‐1 | Tmax (in vivo; male, Beagle): 4.8 min | half-life (in vivo; male, Beagle): 173 min | Morbidity (in vivo; male, beagle): 0 number of dogs | Mortality (in vivo; male, beagle): 0 number of dogs

From PMC11241262, “Unravelling the Antifibrinolytic Mechanism of Action of the 1,2,3-Triazole Derivatives” (International Journal of Molecular Sciences, 2024)
